The results in this text go back to patent publication US10253041B2, “7-phenylethylamino-4H-pyrimido[4,5-d][1,3]oxazin-2-one compounds and their use as mutant IDH1 inhibitors” (Eli Lilly and Company, priority 2015, dated 2019).

One test deals with T1, IDH1/R132H (Homo sapiens, UniProt O75874, R132H).
T1 construct: His-tag (N); made in house; host or cells: E. coli
Kind of test: Biochemical assay for IDH1 R132H mutant enzyme (2HG by RapidFire MS). To be noted: mean ± standard deviation of the mean; 90 minutes reaction. The protocol: (§1) IDH1-R132H, IDH1-R132C, IDH2-R172K and IDH2-R140Q mutant enzymes catalyze the conversion of αKG to 2HG. 2HG is analyzed using in-line solid phase extraction and mass spectrometry. This analysis is carried out in a RapidFire® instrument coupled to a 6460 triple quadrupole mass spectrometer (G6460A Agilent).
(§2) IDH1 mutant (R132H and R132C) and IDH2 mutant (R140Q and R172K) proteins containing N-terminal His-tag are expressed in E. coli and purified using nickel affinity chromatography. The enzyme assays are carried out in V-bottom 96 well polypropylene plates containing 100 mM Tris-HCl buffer, 1 mM DTT, 0.005% TRITON™ X-100, 120 mM NaCl. For IDH1 R132H, α-ketoglutarate, NADPH and MnCl2 are included at final concentrations of 300 μM, 2.5 μM and 300 μM respectively. For IDH1 R132C, α-ketoglutarate, NADPH and MnCl2 are included at final concentrations of 100 μM, 10 μM and 100 μM respectively. For IDH2 R172K, α-ketoglutarate, NADPH and MnCl2 are included at final concentrations of 150 μM, 10 μM and 150 μM respectively. For IDH2 R140Q, α-ketoglutarate, NADPH and MnCl2 are included at final concentrations of 3000 μM, 10 μM and 100 μM respectively. Final pH=7.0. Test compound dissolved in DMSO stock is diluted in the reaction mix at a final DMSO concentration of 4%. Compounds are tested in dose-response format. The assay is started by addition of enzyme. Enzymes are used at the following final concentrations: IDH1 R132H, 2 nM; IDH1 R132C, 0.5 nM; IDH2 R172K, 1.2 nM; IDH2 R140Q, 1.2 nM. After 90 minutes the reaction is quenched by adding ACN (50:50) containing 3-hydroxy-1,5-pentanedioic-2,2,3,4,4-d5 acid (5d5-3HG) as an internal standard for mass spectrometry analysis and quantitation of reaction product. 2-Hydroxyglutarate (2HG) in quenched samples is separated using strong anionic exchange column chromatography (Phenomenex Strata-X-A SecurityGuard) and analyzed by mass spectrometry in a 6460 triple quadrupole mass spectrometer (G6460A Agilent). The 2HG signal detected is transformed into an analyte concentration using a calibration curve generated using known 2HG concentrations. […] IC50 values are obtained from the individual % inhibition values at different compound concentrations using a 4-parameter equation. These calculations are carried out using Activity Base (IDBS) or Screener (Genedata) data analysis programs.

The next test concerns the target T2, IDH2/R140Q (Homo sapiens, UniProt P48735, R140Q).
T2 construct: His-tag (N); made in house; host or cells: E. coli
T2 sequence (P48735 40-452 R140Q): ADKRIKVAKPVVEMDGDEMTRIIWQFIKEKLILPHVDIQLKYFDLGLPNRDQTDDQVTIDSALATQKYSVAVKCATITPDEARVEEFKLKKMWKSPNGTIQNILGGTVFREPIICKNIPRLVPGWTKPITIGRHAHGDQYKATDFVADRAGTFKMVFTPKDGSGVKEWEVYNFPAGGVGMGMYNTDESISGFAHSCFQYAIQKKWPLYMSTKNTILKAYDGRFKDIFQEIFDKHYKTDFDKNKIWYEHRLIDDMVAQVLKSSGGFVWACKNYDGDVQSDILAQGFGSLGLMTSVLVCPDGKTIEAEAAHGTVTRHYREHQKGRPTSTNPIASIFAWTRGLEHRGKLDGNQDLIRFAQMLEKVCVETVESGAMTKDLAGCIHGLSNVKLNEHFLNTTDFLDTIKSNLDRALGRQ
Kind of test: Biochemical assay for IDH2 R140Q mutant enzyme (2HG by RapidFire MS). The conditions noted are these: mean ± standard deviation of the mean; 90 minutes reaction. How it is done:
as §1, §2

A further test deals with T3, IDH2/R172K (Homo sapiens, UniProt P48735, R172K).
T3 construct: His-tag (N); made in house; host or cells: E. coli
T3 sequence (P48735 40-452 R172K): T2 sequence (P48735 40-452 R140Q) with Q101R, R133K
Kind of test: Biochemical assay for IDH2 R172K mutant enzyme (2HG by RapidFire MS). The conditions noted are these: mean ± standard deviation of the mean; 90 minutes reaction. How it is done:
as §1, §2

Test [1] deals with IDH1/R132H in U87MG glioma cells. Kind of test: U87MG/IDH1R132H cell assay (intracellular 2HG). To be noted: Homo sapiens, U-87 MG, 1 hour + 18 hours incubation, read-out: U87MG (IDH1/R132H 2-hydroxyglutarate IC50). In kind it is cell-based. How it is done: To test the cellular inhibition of IDH1 mutant R132C, the fibrosarcoma cell line HT1080 (purchased from ATCC) is used. For testing cell-based inhibition of the R132H mutation, the U87MG glioma cell line (ATCC) was stably transfected with a DNA construct expressing the R132H mutant enzyme.
Cells are plated in poly-D-lys coated 96 well plates (12,000 cells/well) 18-24 hours previous to treatment with compounds. Four hours prior to compound treatment, cells are glutamine-starved by removing normal media and replacing with glutamine-free media. Following starvation, cells are then treated with different concentrations of test compounds (20 μM to 1 nM) dissolved in glutamine free media containing DMSO at a final concentration of 0.2%. The initial compound incubation is for 1 hour at 37° C./5% CO2. After 1 hour, glutamine is added to a final 2 mM concentration and the treated cells are then incubated for a further 18 hours at 37° C./5% CO2. Intracellular 2HG is analyzed in cell lysates obtained after media removal and treatment with lysis buffer (25 mM Tris-HCl pH 7.5, 150 mM NaCl, 1 mM EDTA, 1 mM EGTA/1% Triton-X 100). Cell lysates are conserved at −80° C. until processing. For analyte extraction, an aliquot of thawed lysate is transferred to a deep 96-well plate and treated with cold MeOH containing d5-3HG as an internal standard followed by chloroform and H2O (1:4:3:2). The upper phase is collected after separation and injected in HPLC to separate 2HG (and internal standard) using hydrophilic interaction (HILIC) chromatography coupled to MS/MS detection in a 6460 triple quadrupole mass spectrometer. Percent inhibition for each individual sample is obtained after normalizing calculated 2HG concentration to maximum and minimum references obtained in the presence and in the absence of glutamine during cell treatment with compounds. IC50 values are obtained from individual % inhibition using a sigmoidal dose-response 4-parameter equation. These calculations are carried out automatically using Activity Base (IDBS) or Screener (Genedata) data analysis programs.

Changes are numbered by the printed parent chain. Like-named read-outs stand apart in the source and are kept apart here.

T1 sequence (O75874 whole entry R132H): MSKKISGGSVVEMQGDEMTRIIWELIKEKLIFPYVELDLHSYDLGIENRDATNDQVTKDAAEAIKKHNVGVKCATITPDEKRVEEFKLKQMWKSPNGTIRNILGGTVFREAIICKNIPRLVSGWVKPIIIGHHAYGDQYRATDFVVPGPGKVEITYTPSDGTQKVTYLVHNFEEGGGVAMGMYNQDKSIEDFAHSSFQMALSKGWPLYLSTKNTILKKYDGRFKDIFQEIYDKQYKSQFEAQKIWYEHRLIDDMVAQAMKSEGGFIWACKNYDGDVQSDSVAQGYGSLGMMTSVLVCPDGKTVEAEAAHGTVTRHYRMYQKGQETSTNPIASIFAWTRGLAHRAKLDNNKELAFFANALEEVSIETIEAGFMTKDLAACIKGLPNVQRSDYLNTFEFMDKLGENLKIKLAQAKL

With `C=CC(=O)N1CC(COc2ccc([C@H](C)Nc3ncc4c(n3)N(C(C)C)C(=O)OC4)cc2)C1` [Example 9, 1-Isopropyl-7-[[(1S)-1-[4-[(1-prop-2-enoylazetidin-3-yl)methoxy]-phenyl]ethyl]amino]-4H-pyrimido[4,5-d][1,3]oxazin-2-one], the IC50 on IDH1/R132H was found to be 41.7 ± 3.6 nM; against IDH2/R140Q, 27000 nM; on IDH2/R172K, 2090 nM; in test [1] (19 h), 3.68 ± 0.57 nM.
`C=CC(=O)N1CC(N(C)Cc2ccc([C@H](C)Nc3ncc4c(n3)N(CC)C(=O)OC4)cc2)C1` [Example 10, 1-Ethyl-7-[[(1S)-1-[4-[[methyl-(1-prop-2-enoylazetidin-3-yl)amino]methyl]-phenyl]ethyl]amino]-4H-pyrimido[4,5-d][1,3]oxazin-2-one]: the IC50 on IDH1/R132H is 260 ± 35 nM; against IDH2/R140Q, greater than 100000 nM; at IDH2/R172K it was 6610 nM; in test [1] (19 h), 7.14 ± 1.27 nM.
For `C=CC(=O)N1CCN(Cc2ccc([C@H](C)Nc3ncc4c(n3)N([C@H](C)CO)C(=O)OC4)cc2)CC1` [Example 11, 1-[(1R)-2-Hydroxy-1-methyl-ethyl]-7-[[(1S)-1-[4-[(4-prop-2-enoylpiperazin-1-yl)methyl]phenyl]ethyl]amino]-4H-pyrimido[4,5-d][1,3]oxazin-2-one] the same measures were 80.2 ± 51.9 nM, greater than 100000 nM, 7840 nM and 7.35 ± 0.07 nM.
With `C=CC(=O)N1CCC(N(C)Cc2ccc([C@H](C)Nc3ncc4c(n3)N(CC)C(=O)OC4)cc2)CC1` [Example 12, 1-Ethyl-7-[[(1S)-1-[4-[[methyl-(1-prop-2-enoyl-4-piperidyl)amino]-methyl]phenyl]ethyl]amino]-4H-pyrimido[4,5-d][1,3]oxazin-2-one], the IC50 on IDH1/R132H was 515 ± 86 nM; against IDH2/R140Q, greater than 100000 nM; against IDH2/R172K it was 25300 nM; in test [1] it was 13.5 ± 1.1 nM.
With `C=CC(=O)N1CC(OCc2ccc([C@H](C)Nc3ncc4c(n3)N(CC(C)C)C(=O)OC4)cc2)C1` [Example 13, 1-Isobutyl-7-[[(1S)-1-[4-[(1-prop-2-enoylazetidin-3-yl)oxymethyl]phenyl]ethyl]amino]-4H-pyrimido[4,5-d][1,3]oxazin-2-one], the IC50 against IDH1/R132H came to 77.7 ± 19.6 nM; against IDH2/R140Q, 93600 nM; against IDH2/R172K, 5340 nM; in test [1] (19 h), 7.5 ± 0.283 nM.
For `C=CC(=O)N1CC2(CN(Cc3ccc([C@H](C)Nc4ncc5c(n4)N(CC)C(=O)OC5)cc3)C2)C1` [Example 14, 1-Ethyl-7-[[(1S)-1-[4-[(2-prop-2-enoyl-2,6-diazaspiro[3.3]heptan-6-yl)methyl]phenyl]ethyl]amino]-4H-pyrimido[4,5-d][1,3]oxazin-2-one] the same measures were 81.9 ± 54.1 nM, greater than 100000 nM, 13000 nM and 9.75 ± 2.41 nM.
In the case of `C=CC(=O)N1CC2(CN(Cc3ccc([C@H](C)Nc4ncc5c(n4)N(C(C)C)C(=O)OC5)cc3)C2)C1` [Example 15, 1-Isopropyl-7-[[(1S)-1-[4-[(2-prop-2-enoyl-2,6-diazaspiro[3.3]heptan-6-yl)methyl]phenyl]ethyl]amino]-4H-pyrimido[4,5-d][1,3]oxazin-2-one], the IC50 is 128 ± 9 nM against IDH1/R132H, greater than 100000 nM against IDH2/R140Q, 10400 nM against IDH2/R172K and 3.9 nM in test [1] (19 h).
With `C=CC(=O)N1CCN(Cc2ccc([C@H](C)Nc3ncc4c(n3)N(CC)C(=O)OC4)cc2F)CC1` [Example 16, 1-Ethyl-7-[[(1S)-1-[3-fluoro-4-[(4-prop-2-enoylpiperazin-1-yl)methyl]phenyl]ethyl]amino]-4H-pyrimido[4,5-d][1,3]oxazin-2-one], the IC50 was 116 ± 15 nM against IDH1/R132H, 49000 nM at IDH2/R140Q, 4100 nM against IDH2/R172K and 5.79 ± 0.57 nM in test [1] (19 h).
Regarding `C=CC(=O)N1CC(COc2ccc([C@H](C)Nc3ncc4c(n3)N(CC)C(=O)OC4)cc2)C1` [Example 17, 1-Ethyl-7-[[(1S)-1-[4-[(1-prop-2-enoylazetidin-3-yl)methoxy]phenyl]ethyl]amino]-4H-pyrimido[4,5-d][1,3]oxazin-2-one], the IC50 worked out at 114 ± 38 nM at IDH1/R132H, 48700 nM against IDH2/R140Q, 1740 nM at IDH2/R172K and 6.75 ± 1.13 nM in test [1] (19 h).
For the compound `C=CC(=O)N1CCN(Cc2ccc([C@H](C)Nc3ncc4c(n3)N(C)C(=O)OC4)cc2)CC1` [Example 19, 1-Methyl-7-[[(1S)-1-[4-[(4-prop-2-enoylpiperazin-1-yl)methyl]phenyl]ethyl]amino]-4H-pyrimido[4,5-d][1,3]oxazin-2-one], the IC50 on IDH1/R132H was 776 ± 210 nM; against IDH2/R140Q, greater than 100000 nM; against IDH2/R172K it was 23000 ± 12400 nM; in test [1] it was 44.9 ± 22.4 nM.
In the case of `C=CC(=O)N1CCN(Cc2ccc([C@H](C)Nc3ncc4c(n3)N(CC(F)F)C(=O)OC4)cc2)CC1` [Example 20, 1-(2,2-difluoroethyl)-7-[[(1S)-1-[4-[(4-prop-2-enoylpiperazin-1-yl)methyl]phenyl]ethyl]amino]-4H-pyrimido[4,5-d][1,3]oxazin-2-one], the IC50 against IDH1/R132H worked out at 180 ± 33 nM; against IDH2/R140Q, 83500 ± 17400 nM; at IDH2/R172K, 6780 ± 2400 nM; in test [1] (19 h), 31.9 ± 11.7 nM.
